Measured values reported in publication PMC3722775, “1-Aryl-3-[4-(thieno[3,2-d]pyrimidin-4-yloxy)phenyl]ureas as VEGFR-2 Tyrosine Kinase Inhibitors: Synthesis, Biological Evaluation, and Molecular Modelling Studies” (BioMed Research International, 2013).

Legend:
[1] = target: T1, VEGFR-2 (Homo sapiens, UniProt P35968); test: VEGFR-2 enzymatic inhibition assay (Z'-LYTE-Tyr1 Peptide FRET kit); assay type: biochemical; conditions: enzymatic FRET-based assay, 10 μM ATP; four separate determinations
T1 construct: purchased Invitrogen
Procedure: The compounds were assessed for VEGFR-2 inhibition activity using the Z′-LYTE-Tyr1 Peptide assay kit (according to the procedures recommended by the manufacturer Invitrogen, Cat. PV3190) [14]. Briefly, assays were performed in a total of 20 μL in 384-well plates using fluorescence resonance energy transfer technology. A Tyr1 substrate (coumarin-fluorescein double-labeled peptide) at 1.0 μM was incubated for 1 h with 4 μg/mL VEGFR-2, 10 μM ATP, and inhibitors at room temperature in 50 mM Hepes/Na (pH 7.5), 10 mM MgCl2, 2.0 mM MnCl2, 2.5 mM DTT, 0.10 mM orthovanadate, and 0.01% bovine serum albumin. […] After a second incubation of 1 hour, a stop reagent was added to each well.

[2] = system: HUVECs; test: MTS toxicity (cell viability) assay in HUVECs; assay type: cell-based, human; conditions: 24 h, control 2.33 ± 0.06 O.D., mean ± SEM
Procedure: (§1) Human umbilical vein endothelial cells (HUVECs) were obtained from the ScienceCell Research Labs (San Diego, CA, USA), HUVECs were seeded on plates coated with 0.2% gelatin (Sigma-Aldrich, Sintra, Portugal) and cultured in M199 medium (Sigma-Aldrich, Sintra, Portugal) supplemented with 20% fetal bovine serum (FBS) (Invitrogen Life Technologies, Scotland, UK), 1% penicillin/streptomycin (Invitrogen Life Technologies), 0.01% heparin (Sigma-Aldrich), and […] endothelial cell growth supplement (Biomedical Technologies Inc., MA, USA) and maintained at 37°C in a humidified 5% carbon dioxide atmosphere. Cells were kept between passages 3 and 8 for every experiment. The test compounds were dissolved in DMSO and added to cell cultures at a concentration of 0.1–10 μM. Incubations were performed for 24 h in medium supplemented with 2% FBS, 1% penicillin/streptomycin, and 60 ng/mL of the vascular endothelial growth factor (Sigma-Aldrich, Sintra, Portugal). Control cells were incubated with vehicle (DMSO at 0.1% in every culture).
HUVECs (2 × 10^5 cells/mL) were allowed to grow for 24 h and then incubated with the test compounds at a range concentration between 0.1 and 10 μM or control (0.1% DMSO) for 24 h. After the incubation period, cells were washed and their viability was assessed using Cell Titer 96 Aqueous ONE Solution Reagent MTS [3-(4,5-dimethylthiazol-2-yl)-5-(3-carboxymethoxyphenyl)-2-(4-sulfophenyl)-2H-tetrazolium] colorimetric assay (Promega, Madison, USA), according to the instructions provided by the manufacturer and as previously described. Optical density was measured at 492 nm. Three independent experiments were performed, and the results were expressed as mean ± SEM.

[3] = system: phosphorylated (activated) VEGFR-2; test: Western blotting of phosphorylated (active) and total VEGFR-2 in HUVECs; assay type: cell-based, human; conditions: 1 μM, normalized with total VEGFR-2
Procedure: as §1
Proteins were isolated from HUVEC lysates using RIPA (Chemicon International, CA, USA). Proteins were quantified using a spectrophotometer (Jenway, 6405 UV/vis, Essex, UK), and 20 μg of protein were subjected to 8% SDS-PAGE with a 5% stacking gel. After electrophoresis, proteins were blotted into a Hybond nitrocellulose membrane (Amersham, Arlington, VA, USA). Immunodetection for total VEGFR-2 (1 : 1000; Cell Signaling, MA, USA), phosphorylated (activated) VEGFR-2 (1 : 750; Santa Cruz Biotechnology, CA, USA), and β-actin (1 : 3000; Abcam, Cambridge, UK) was accomplished with enhanced chemiluminescence (ECL kit, Amersham, Arlington, USA). […] The relative intensity of each protein blotting analysis was measured using a computerized software program (Bio-Rad, CA, USA), and the expression of activated and total VEGFR-2 were normalized with total VEGFR-2 and β-actin bands, respectively, to compare the expression of proteins in different treatment groups.

[4] = system: HUVECs; test: TUNEL cell apoptosis assay in HUVECs; assay type: cell-based, human; conditions: 24 h; for Effect on apoptosis (TUNEL): 0.1, 0.5 and 1 μM, statistical significance only for 2a at the highest concentration
Procedure: as §1
HUVECs (6 × 10^4 cells/mL) were grown for 24 h on glass coverslips and incubated with different concentrations (0.1–1 μM) of the tested compounds. TUNEL assay was performed using the In Situ Cell Death Detection kit (Roche Diagnostics, Mannheim, Germany), according to the manufacturer's instruction and as previously reported. Immunofluorescence was visualized under a fluorescence microscope (Olympus, BH-2, UK). The percentage of stained cells was evaluated by counting the cells stained with TUNEL (apoptotic cells) divided by the total number of nuclei counterstained with DAPI (Invitrogen, CA, USA) at a 200x magnification field. One thousand nuclei were evaluated. Results were expressed as percentage of control (100%).

T1 sequence (P35968 834-1162 limits assumed): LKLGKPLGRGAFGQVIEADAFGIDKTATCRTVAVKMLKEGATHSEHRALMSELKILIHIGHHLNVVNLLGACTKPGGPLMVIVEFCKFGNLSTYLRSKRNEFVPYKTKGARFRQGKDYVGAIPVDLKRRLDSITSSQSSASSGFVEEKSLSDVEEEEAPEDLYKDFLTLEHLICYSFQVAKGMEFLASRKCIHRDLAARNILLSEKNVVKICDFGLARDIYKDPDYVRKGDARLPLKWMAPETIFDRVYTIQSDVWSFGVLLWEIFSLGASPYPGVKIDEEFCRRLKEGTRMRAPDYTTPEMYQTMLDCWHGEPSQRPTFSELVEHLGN

Row | Compound | melting point | IC50 [1] | Viability of HUVEC (MTS optical density) ([2]; 5.0 μM) | Viability of HUVEC (MTS optical density) ([2]; 10 μM) | Formation of the active (phosphorylated) form of VEGFR-2 [3] | Effect on apoptosis (TUNEL) [4] | Increase in apoptosis (TUNEL) comparing with untreated cells ([4]; highest concentration tested (1 μM))
1 | Cc1csc2c(Oc3ccc(NC(=O)Nc4ccccc4)cc3)ncnc12 [Compound 2d, 1-Phenyl-3-[4-(7-Methylthieno[3,2-d]pyrimidin-4-yloxy)phenyl]urea] | 285.7 to 287.3 °C | > 100000 nM |  |  |  |  | 
2 | COc1ccc(NC(=O)Nc2ccc(Oc3ncnc4c(C)csc34)cc2)cc1 [Compound 2e, 1-(4-Methoxyphenyl)-3-[4-(7-methylthieno[3,2-d]pyrimidin-4-yloxy)phenyl]urea] | 248.4 to 249.6 °C | > 100000 nM |  |  |  |  | 
3 | COc1ccc(NC(=O)Nc2ccc(Oc3ncnc4ccsc34)cc2)cc1 [Compound 2b, 1-(4-Methoxyphenyl)-3-[4-(thieno[3,2-d]pyrimidin-4-yloxy)phenyl]urea] |  | 188 nM | 1.84 ± 0.05 O.D. | 1.82 ± 0.04 O.D. | significantly decrease | increase in apoptosis | 
4 | Cc1csc2c(Oc3ccc(NC(=O)Nc4ccc(C#N)cc4)cc3)ncnc12 [Compound 2f, 1-(4-Cyanophenyl)-3-[4-(7-methylthieno[3,2-d]pyrimidin-4-yloxy)phenyl]urea] |  | > 100000 nM |  |  |  |  | 
5 | O=C(Nc1ccccc1)Nc1ccc(Oc2ncnc3ccsc23)cc1 [Compound 2a, 1-Phenyl-3-[4-(thieno[3,2-d]pyrimidin-4-yloxy)phenyl]urea] |  | 199 nM | 2.00 ± 0.06 O.D. | 1.99 ± 0.03 O.D. | significantly decrease | increase in apoptosis | 32.8 ± 1.23%
6 | N#Cc1ccc(NC(=O)Nc2ccc(Oc3ncnc4ccsc34)cc2)cc1 [Compound 2c, 1-(4-Cyanophenyl)-3-[4-(thieno[3,2-d]pyrimidin-4-yloxy)phenyl]urea] |  | 150 nM |  | 1.96 ± 0.02 O.D. | did not significantly inhibit | increase in apoptosis | 
